Consider 9 compounds from patent US12240825B2, “Oxexin 1 receptor antagonists” (Heptares Therapeutics Limited, priority 2019, dated 2025).

Experiment [1] concerns rats. The conditions noted are these: sodium lactate infusion and CO2 challenge models; cited from earlier work.
Experiment [2] concerns rats. The conditions noted are these: cited from earlier work.
Experiment [3] deals with rats. Particulars: cited from earlier work. This is another data set of the same source.
Experiment [4] has as its system rats. Particulars: intraperitoneal administration; cited from earlier work.
Experiment [5] has as its target T1, Human OX1 receptor (Homo sapiens (Human), UniProt O43613). Description: [3H]-radioligand binding assay, OX1. Particulars: competition binding, membranes of SF21 cells, Ki by Cheng-Prusoff. From the text:
(§1) Cloning, Baculovirus generation, large-scale infection of SF21 cells and membrane preparation. Human OX1 or OX2 receptor were cloned into Invitrogen's (ThermoFisher Scientific, UK) Bac-to-Bac Baculovirus Expression System. P0 baculovirus was generated by transfecting SF9 cells with bacmid DNA using Cellfectin® II transfection reagent (ThermoFisher Scientific, UK, Catalog number 10362-100). Following P0 generation P1 virus was then generated ready for large scale infection and membrane preparation. SF21 cells were grown in expression medium ESF921 (Expression Systems, USA, catalog number 96-001-01) supplemented with 10% heat-inactivated FBS and 1% Pen/Strep and were infected at a cell density of 2.5×10^6 cells/mL and a multiplicity of infection of 1.0 for both human OX1R and OX2R. Incubation was carried out at over 48 h in a shaking incubator set at 27° C. The cell culture was then centrifuged at 2,500 rcf for 10 min at 4° C. The pellets were resuspended in cold PBS supplemented with Roche's Complete EDTA-free protease inhibitor cocktail tablets (Roche Applied Sciences, catalog number 05056489001), 1 mM PMSF and 1 mM EDTA. The resuspended cell paste was then centrifuged at 3,273 rcf for 12 min at 4° C. The supernatant was discarded and the pellet frozen at −80° C. The cell pellet from a 4 L culture was resuspended in buffer containing 50 mM HEPES pH 7.5, 150 mM NaCl, 8 Roche EDTA-Free protease inhibitor cocktail tablets and 1 mM PMSF. The suspension was left stirring at rt for 1 h and then homogenised for 90 s at 9,500 rpm using a VDI 25 (VWR, USA) homogeniser. The cells were then lysed using a Microfluidiser processor M-110L Pneumatic (Microfluidics, USA) at 60 PSI and membranes collected by ultracentrifugation at 204.7 k×g for 1 h. The supernatant was discarded and the pellet was resuspended and homogenised in 90 s at 9,500 rpm in 50 mL (25 mL for each 2 L culture) of buffer containing 50 mM Hepes pH 7.5, 150 mM NaCl, 3 Roche EDTA-free protease inhibitor cocktail tablets and 1 mM PMSF. The resulting membranes were then stored at −80° C.
(§2) [^3H]-radioligand binding assay. After thawing, membrane homogenates were resuspended in the binding buffer (8.5 mM HEPES, pH 7.4, 1.3 mM CaCl2, 1.2 mM MgSO4, 118 mM NaCl, 4.7 mM KCl, 4 mM NaHCO3, 1.2 mM KH2PO4, 11 mM glucose) to a final assay concentration of 6.4 μg (OX1) or 1.4 μg (OX2) protein per well. Saturation isotherms were determined by the addition of various concentrations (0-30 nM) of [^3H]-4-(2,6-difluoro-4-methoxybenzyl)-2-(5,6-dimethoxypyridin-3-yl)-2H-1,2,4-benzothiadiazin-3(4H)-one 1,1-dioxide (Christopher et al, MedChemComm., 2015, 6, 947-955) in a total reaction volume of 250 μL for 90 min at rt. At the end of the incubation, membranes were filtered onto a 96-well GF/B filter pre-incubated with 0.5% polyethylenimine, with a Tomtec cell harvester and washed 5 times with 0.5 mL distilled water. Non-specific binding (NSB) was measured in the presence of 3.33 μM [4-(5-chloro-1,3-benzoxazol-2-yl)-7-methyl-1,4-diazepan-1-yl][5-methyl-2-(2H-1,2,3-triazol-2-yl)phenyl]methanone (Wertz et al, Angew. Chem. Int. Ed., 2011, 50, 11511-11515). Radioactivity on the filter was counted (1 min) on a Microbeta radiometric plate counter (Perkin Elmer) after addition of 50 μL of scintillation fluid (LabLogic: Part #SG-BXX-14). […] IC50 values were derived from the inhibition curve and the equilibrium dissociation constant (Ki) values were calculated using the Cheng-Prusoff equation.

The target of experiment [6] is T2, Human OX2 receptor (Homo sapiens (Human), UniProt O43614). Description: [3H]-radioligand binding assay, OX2. The conditions noted are these: competition binding, membranes of SF21 cells, Ki by Cheng-Prusoff.
Excerpt: as §1, §2

Experiment [7] addresses T1, Human OX1 receptor. The experiment can be described thus: IPone accumulation assay, CHO cells expressing OX1. The format is cell-based. Particulars: antagonism of orexin A (EC80 ~20 nM)-induced inositol phosphate turnover, read-out: fpKb average OX1 (converted). The protocol:
Generation of CHO stable cell lines expressing the human OX1R and OX2R. Stable cell lines for the human OX1R and OX2R receptors were generated through the transfection of CHO cells using the transfection reagent Genejuice (Novagen number 70967) and cDNA coding for either the human OX1R or OX2R. Cells were cultured in Sigma Nutrient Mixture F-12 Ham media (catalog number N6658) supplemented with 10% heat-inactivated FBS. Forty-eight hours after transfection, cells were harvested and placed under geneticin selection by culturing in Sigma Nutrient Mixture F-12 Ham media supplemented with 10% heat-inactivated FBS and geneticin (ThermoFisher Catalog number: 10131035). Selection of the final stable clone for each receptor was made on the basis of receptor expression, assay signal to noise and robustness though increasing passage. Selected clones for the human OX1R and OX2R were then frozen down into liquid nitrogen using Cell Freezing Medium-DMSO (Sigma-Aldrich catalog number: C6164).
(§3) IPone accumulation assay. A CHO cell line stably expressing either human OX1 or OX2 receptor was used with the IPone HTRF assay kit (CisBio: Part #62IPAPEJ) to measure receptor activation. The assay was optimised to measure the ability (potency; fpKb) of antagonists to reduce agonist (orexin A)-induced inositol phosphate turnover. Briefly, cells were plated onto half area 96-well white walled plates at a density of 12,500 cells/well. Sixteen hours post-plating cell growth media was replaced with antagonist concentration-response curve diluted in stimulation buffer (supplied with the kit). Cells were incubated in a humidified incubator (37° C.) for 30 min before an EC80 challenge concentration (˜20 nM (OX1) and 40 nM (OX2)) of orexin A (Tocris catalogue number 1455). After 30 min stimulation in a humidified incubator (37° C.) the assay was terminated by the addition of detection mixture as per manufacturer's instructions. The concentration of compound which reduced orexin-A stimulated turnover of inositol phosphates by 50% (IC50) was calculated by fitting to a four parameter sigmoidal dose response curve. The IC50 values were converted to fpKB values using the orexin A pEC50 value estimated on each plate as well as the challenge concentration interpolated from the orexin A control curve.

The target in experiment [8] is T2, Human OX2 receptor. The experiment can be described thus: IPone accumulation assay, CHO cells expressing OX2. The format is cell-based. The conditions noted are these: antagonism of orexin A (EC80 40 nM)-induced inositol phosphate turnover, read-out: fpKb average OX2 (converted). The protocol:
as §3, with “Generation of CHO stable cell lines expressing the human OX1R and OX2R. Stable cell lines for the human OX1R and OX2R receptors were generated through the transfection of CHO cells using the transfection reagent Genejuice (Novagen number 70967) and cDNA coding for either the human OX1R or OX2R. Cells were cultured in Sigma Nutrient Mixture F-12 Ham media (catalog number N6658) supplemented with 10% heat-inactivated FBS. Forty-eight hours after transfection, cells were harvested and placed under geneticin selection by culturing in Sigma Nutrient Mixture F-12 Ham media supplemented with 10% heat-inactivated FBS and geneticin (ThermoFisher Catalog number: 10131035). Selection of the final stable clone for each receptor was made on the basis of receptor expression, assay signal to noise and robustness though increasing passage. Selected clones for the human OX1R and OX2R were then frozen down into liquid nitrogen using Cell Freezing Medium-DMSO (Sigma-Aldrich catalog number: C6164). IPone accumulation” for “IPone accumulation”, “(CisBio: Part #62[…]) to measure” for “(CisBio: Part #62IPAPEJ) to measure”, “challenge concentration ( 20 nM (OX1)” for “challenge concentration (˜20 nM (OX1)”

T1 sequence (O43613 whole entry): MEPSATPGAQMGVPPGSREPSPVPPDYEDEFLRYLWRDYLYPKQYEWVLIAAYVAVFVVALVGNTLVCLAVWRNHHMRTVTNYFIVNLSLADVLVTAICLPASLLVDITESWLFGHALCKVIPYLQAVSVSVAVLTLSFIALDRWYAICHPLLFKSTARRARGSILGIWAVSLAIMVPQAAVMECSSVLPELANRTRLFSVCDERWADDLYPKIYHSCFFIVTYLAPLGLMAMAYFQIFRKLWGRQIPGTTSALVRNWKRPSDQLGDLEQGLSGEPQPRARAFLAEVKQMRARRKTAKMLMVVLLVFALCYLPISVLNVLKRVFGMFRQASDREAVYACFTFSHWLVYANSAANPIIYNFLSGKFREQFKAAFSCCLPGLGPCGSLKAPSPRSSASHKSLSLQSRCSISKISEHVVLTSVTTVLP
T2 sequence (O43614 whole entry): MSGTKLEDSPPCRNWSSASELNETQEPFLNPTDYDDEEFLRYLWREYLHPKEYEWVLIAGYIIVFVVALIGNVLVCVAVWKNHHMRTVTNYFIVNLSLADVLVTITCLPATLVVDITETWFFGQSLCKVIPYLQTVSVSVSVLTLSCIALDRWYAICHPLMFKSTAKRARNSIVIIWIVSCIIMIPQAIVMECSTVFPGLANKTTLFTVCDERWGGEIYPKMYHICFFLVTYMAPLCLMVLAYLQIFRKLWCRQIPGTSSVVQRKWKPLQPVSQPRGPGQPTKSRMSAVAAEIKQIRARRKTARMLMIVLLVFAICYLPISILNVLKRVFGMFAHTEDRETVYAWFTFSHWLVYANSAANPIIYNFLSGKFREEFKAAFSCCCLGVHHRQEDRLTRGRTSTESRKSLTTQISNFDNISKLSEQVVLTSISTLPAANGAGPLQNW

As to `O=C(c1cccc(F)c1-c1ncccn1)N1[C@@H]2CC[C@H]1[C@H](Nc1cnc(C(F)(F)F)cn1)C2` [JNJ-54717793], the “panic-like behaviours and cardiovascular responses” value in experiment [1] was “attenuated”.
As for `Cc1nc2ccc(NC(=O)Nc3ccnc4cccnc34)cc2o1` [SB-334867], the alcohol self-administration entry in experiment [2] was “decreases”. In addition, the nicotine self-administration result in experiment [3] is given as “decreases”. Moreover, the opiate withdrawal symptoms entry in experiment [4] was “significantly reduce”.
`O=C(N[C@H]1CCC[C@@H]1COc1ccc(F)cc1)c1nc(NCC(F)F)ccc1-n1nccn1` [Example 19, 6-(2,2-difluoroethylamino)-N-[(1S,2S)-2-[(4-fluorophenoxy)methyl]cyclopentyl]-3-(triazol-2-yl)pyridine-2-carboxamide]: the “pKi average OX1” value in experiment [5] turned out to be 8.8. Further, in experiment [6], the “pKi average OX2” value is recorded as 6.6. Moreover, the Kb in experiment [7] was 0.0158 µM; in experiment [8] it was above 0.501 µM.
The corresponding values for `CC(=O)Nc1ccc(-n2nccn2)c(C(=O)N[C@H]2CCC[C@@H]2COc2ccc(F)cc2F)n1` [Example 17, 6-acetamido-N-[(1S,2S)-2-[(2,4-difluorophenoxy)methyl]cyclopentyl]-3-(triazol-2-yl)pyridine-2-carboxamide] are 9.1, 5.4, 0.0501 µM and above 0.0631 µM.
Turning to `CC(=O)Nc1ccc(-n2nccn2)c(C(=O)N[C@H]2CCC[C@@H]2COc2ccc(F)cn2)n1` [Example 26, 6-acetamido-N-[(1S,2S)-2-[(5-fluoro-2-pyridyl)oxymethyl]cyclopentyl]-3-(triazol-2-yl)pyridine-2-carboxamide], the “pKi average OX1” value in experiment [5] was 7.9. Moreover, the “pKi average OX2” value in experiment [6] was below 5.1. Moreover, the Kb in experiment [7] was 0.316 µM; in experiment [8], above 1 µM.
Take `CC(=O)Nc1ccc(-n2nccn2)c(C(=O)N[C@H]2CCC[C@@H]2COc2ccc(F)cc2)n1` [Example 3, 6-acetamido-N-[(1S,2S)-2-[(4-fluorophenoxy)methyl]cyclopentyl]-3-(triazol-2-yl)pyridine-2-carboxamide]: in experiment [5], the “pKi average OX1” value stood at 8.3. The “pKi average OX2” value in experiment [6] was 5.4. Further, the figures for the Kb in experiment [7] and in experiment [8] were 0.02 µM and 1.26 µM, respectively.
In the case of `COCC(=O)Nc1ccc(-c2ncccn2)c(C(=O)N[C@H]2CCC[C@@H]2COc2ccc(F)cc2)n1` [Example 16, N-[(1S,2S)-2-[(4-fluorophenoxy)methyl]cyclopentyl]-6-[(2-methoxyacetyl)amino]-3-pyrimidin-2-yl-pyridine-2-carboxamide], the “pKi average OX1” value in experiment [5] was determined as 7.7. Also, the “pKi average OX2” value in experiment [6] was below 5.1. For the same compound, the values for the Kb in experiment [7] and in experiment [8] were 0.2 µM and above 1 µM, respectively.
The corresponding values for `Nc1ccc(-n2nccn2)c(C(=O)N[C@H]2CCC[C@@H]2COc2ccc(F)cc2)n1` [Example 4, 6-amino-N-[(1S,2S)-2-[(4-fluorophenoxy)methyl]cyclopentyl]-3-(triazol-2-yl)pyridine-2-carboxamide] are 8.0, 5.9, 0.01 µM and above 1.26 µM.
The corresponding values for `O=C(N[C@H]1CCC[C@@H]1COc1ccc(F)cc1)c1nc(NC(=O)C(F)F)ccc1-n1nccn1` [Example 11, 6-[(2,2-difluoroacetyl)amino]-N-[(1S,2S)-2-[(4-fluorophenoxy)methyl]cyclopentyl]-3-(triazol-2-yl)pyridine-2-carboxamide] are 7.9, below 5.8, 0.0316 µM and above 1 µM.
